Earlier results as cited in patent US20210054334A1, “DIRECTED DIFFERENTIATION OF ASTROCYTES FROM HUMAN PLURIPOTENT STEM CELLS FOR USE IN DRUG SCREENING AND THE TREATMENT OF AMYOTROPHIC LATERAL SCLEROSIS (ALS)” (Kadimastem Ltd., priority 2013, published 2021).

Details: ALS

For Nc1nc2ccc(OC(F)(F)F)cc2s1 [Rilutek, Riluzole], the extension of lifespan is given as “only extends lifespan by a maximum of three months”.
